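A five-concentration, 48-hour dose response in 96-well plates underlies each endpoint, interpolated linearly between surrounding concentrations. TGI is the concentration that stops growth completely.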
Key:
Assay in all cases: NCI tumour cell line growth inhibition, 48 h
HOP-92 NSCLC = tested on: HOP-92 NSCLC
HL-60(TB) leukemia = tested on: HL-60(TB) leukemia
SN12C renal = tested on: SN12C renal
NCI-H226 lung = tested on: NCI-H226 lung
HT29 colon = tested on: HT29 colon
IGROV1 ovarian = tested on: IGROV1 ovarian
NCI-H522 lung = tested on: NCI-H522 lung
A498 renal = tested on: A498 renal
SK-MEL-5 melanoma = tested on: SK-MEL-5 melanoma
ACHN renal = tested on: ACHN renal
OVCAR-4 ovarian = tested on: OVCAR-4 ovarian
K-562 leukemia = tested on: K-562 leukemia
NCI-H23 lung = tested on: NCI-H23 lung
MALME-3M melanoma = tested on: MALME-3M melanoma
SNB-75 CNS = tested on: SNB-75 CNS
MCF7 breast = tested on: MCF7 breast

Measured: TGI

C/C(=N\NC(=S)NC(CCC(=O)O)C(=O)O)c1cnccn1 (stereo unspecified)
> 100 µM: HOP-92 NSCLC | HL-60(TB) leukemia | SN12C renal | NCI-H226 lung | HT29 colon | IGROV1 ovarian | NCI-H522 lung | A498 renal | SK-MEL-5 melanoma | ACHN renal | OVCAR-4 ovarian | K-562 leukemia | NCI-H23 lung | MALME-3M melanoma | SNB-75 CNS

O=C(Cc1ccc([N+](=O)[O-])c([N+](=O)[O-])c1CC(=O)C(=O)Nc1cc(Cl)ccc1Cl)C(=O)Nc1cc(Cl)ccc1Cl
> 100 µM: HOP-92 NSCLC | HL-60(TB) leukemia | SN12C renal | NCI-H226 lung | HT29 colon | IGROV1 ovarian | A498 renal | SK-MEL-5 melanoma | ACHN renal | OVCAR-4 ovarian | K-562 leukemia | NCI-H23 lung | MALME-3M melanoma | SNB-75 CNS

CCN(CC)CCC1(C2CCCCC2)CCC(=O)NC1=O (stereo unspecified)
> 100 µM: SN12C renal | NCI-H226 lung | HT29 colon | IGROV1 ovarian | NCI-H522 lung | A498 renal | SK-MEL-5 melanoma | ACHN renal | OVCAR-4 ovarian | K-562 leukemia | NCI-H23 lung | MALME-3M melanoma | SNB-75 CNS

CCOc1ccc(/C=C(\Cl)c2ccc(OC)cc2)cc1
> 100 µM: HOP-92 NSCLC | HL-60(TB) leukemia | SN12C renal | NCI-H226 lung | HT29 colon | IGROV1 ovarian | NCI-H522 lung | A498 renal | SK-MEL-5 melanoma | ACHN renal | OVCAR-4 ovarian | K-562 leukemia | NCI-H23 lung | MALME-3M melanoma | SNB-75 CNS

COc1ccccc1-n1c(N)c2c(C)c(-c3ccccc3)[nH]c2nc1=S
> 100 µM: HOP-92 NSCLC | HL-60(TB) leukemia | SN12C renal | NCI-H226 lung | NCI-H522 lung | A498 renal | SK-MEL-5 melanoma | ACHN renal | OVCAR-4 ovarian | K-562 leukemia | NCI-H23 lung | MALME-3M melanoma | SNB-75 CNS

CCOC(=O)CCC(NC(=O)C(N)c1ccc([N+](=O)[O-])cc1)C(=O)NC(CCC(=O)OCC)C(=O)OCC (stereo unspecified)
> 100 µM: HOP-92 NSCLC | HL-60(TB) leukemia | SN12C renal | MCF7 breast | NCI-H226 lung | HT29 colon | IGROV1 ovarian | A498 renal | SK-MEL-5 melanoma | ACHN renal | K-562 leukemia | NCI-H23 lung | MALME-3M melanoma | SNB-75 CNS

CCOC(=O)CCC(NC(=O)c1ccc(N=Cc2nc3ccccc3nc2-c2ccccc2)cc1)C(=O)OCC (stereo unspecified)
> 100 µM: HOP-92 NSCLC | HL-60(TB) leukemia | SN12C renal | NCI-H226 lung | HT29 colon | IGROV1 ovarian | NCI-H522 lung | A498 renal | SK-MEL-5 melanoma | ACHN renal | OVCAR-4 ovarian | K-562 leukemia | NCI-H23 lung | MALME-3M melanoma | SNB-75 CNS

CC/C(=N/O)c1ccc2[nH]c3c(C)cc([N+](=O)[O-])c(C)c3c2c1
> 100 µM: HL-60(TB) leukemia | SN12C renal | NCI-H226 lung | HT29 colon | NCI-H522 lung | SK-MEL-5 melanoma | ACHN renal | OVCAR-4 ovarian | K-562 leukemia | NCI-H23 lung | MALME-3M melanoma | SNB-75 CNS

Source: PubChem BioAssay (NCI)
